Assay results taken from US7435820B2, “Substituted tetrahydro-1H-pyrazolo [3,4-c]pyridines compositions comprising them, and use” (Aventis Pharma S.A., priority 2003, dated 2008).
Read-outs that look alike come from different tables or passages of the source.

Assays:
human Tie2 = target: T1, human Tie2 (Homo sapiens, UniProt Q02763); test: Tie2 kinase inhibition: phosphorylation of GST-PLC (SH2-SH3 fragments) by GST-Tie2, 33P-ATP flashplate; format: biochemical
T1 construct: human Tie2 corresponding to amino acids 776-1124 of the intracellular domain was generated by PCR; made in house; host or cells: baculovirus expression system (vector pFastBacGT)
T1 sequence (Q02763 776-1124): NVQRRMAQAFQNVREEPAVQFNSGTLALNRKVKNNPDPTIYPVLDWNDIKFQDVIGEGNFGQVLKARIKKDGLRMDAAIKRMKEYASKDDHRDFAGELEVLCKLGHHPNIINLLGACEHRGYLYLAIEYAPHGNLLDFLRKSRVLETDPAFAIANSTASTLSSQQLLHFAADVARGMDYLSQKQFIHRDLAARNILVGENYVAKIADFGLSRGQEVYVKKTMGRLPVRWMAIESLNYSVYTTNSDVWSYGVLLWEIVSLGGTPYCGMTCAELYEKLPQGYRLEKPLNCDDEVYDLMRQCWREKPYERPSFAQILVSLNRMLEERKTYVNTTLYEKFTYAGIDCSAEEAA
Method: The coding sequence of human Tie2 corresponding to amino acids 776-1124 of the intracellular domain was generated by PCR using the cDNA isolated from human placenta as model. This sequence was introduced into a baculovirus expression vector pFastBacGT in the form of a GST fusion protein.
The inhibitory effect of the molecules is determined in an assay for phosphorylation of PLC by Tie2 in the presence of GST-Tie2 purified to approximately 80% homogeneity. The substrate is made up of the SH2-SH3 fragments of PLC, the latter being expressed in the form of a GST fusion protein.
The kinase activity of Tie2 is measured in a 20 mM MOPS buffer, pH 7.2, containing 10 mM MgCl2, 10 mM MnCl2, 1 mM DTT and 10 mM of glycerophosphate. A reaction mixture made up of 70 μl of kinase buffer containing 100 ng of GST-Tie2 enzyme per well is placed in a flashplate 96-well plate kept on ice. 10 μl of the molecule to be tested, diluted in DMSO, at a concentration of at most 10% are then added. For a given concentration, each measurement is carried out in quadruplicate. The reaction is initiated by adding 20 μl of solution containing 2 μg of GST-PLC, 2 μM of cold ATP and 1 μCi of ^33P[ATP]. After incubation for 1 hour at 37° C., the reaction is stopped by adding 1 volume (100 μl) of 200 mM EDTA. After removal of the incubation buffer, the wells are washed three times with 300 μl of PBS. The radioactivity is measured on a Wallac MicroBeta 1450.
The inhibition of the Tie2 activity is calculated and expressed as percentage inhibition with respect to the control activity determined in the absence of compound.

human KDR enzyme = target: T2, human KDR enzyme (Homo sapiens, UniProt P35968); test: KDR kinase inhibition: phosphorylation of PLCγ SH2-SH3 substrate by KDR enzyme, 33P-ATP scintillation plate; format: biochemical
T2 construct: The cytoplasmic domain of the human KDR enzyme was cloned in GST fusion form; GST; made in house; host or cells: SF21 insect cells (baculovirus, pFastBac)
T2 sequence (P35968 786-1356 limits assumed): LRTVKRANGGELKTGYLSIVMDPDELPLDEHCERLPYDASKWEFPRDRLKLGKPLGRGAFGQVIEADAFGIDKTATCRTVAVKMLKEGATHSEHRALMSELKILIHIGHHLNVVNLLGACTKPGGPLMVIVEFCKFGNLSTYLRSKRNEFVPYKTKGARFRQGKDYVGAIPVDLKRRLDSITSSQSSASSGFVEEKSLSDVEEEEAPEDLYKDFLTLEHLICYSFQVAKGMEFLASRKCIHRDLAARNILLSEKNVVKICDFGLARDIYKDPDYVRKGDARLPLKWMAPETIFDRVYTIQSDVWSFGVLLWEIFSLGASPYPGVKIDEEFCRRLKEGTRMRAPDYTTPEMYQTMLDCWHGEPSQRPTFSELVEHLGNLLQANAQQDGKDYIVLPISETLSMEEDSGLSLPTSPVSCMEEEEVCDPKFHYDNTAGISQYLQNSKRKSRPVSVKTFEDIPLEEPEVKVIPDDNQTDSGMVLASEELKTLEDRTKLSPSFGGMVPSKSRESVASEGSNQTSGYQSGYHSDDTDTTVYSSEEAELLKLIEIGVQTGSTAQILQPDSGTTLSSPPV
Method: The inhibitory effect of the compounds is determined in an assay for phosphorylation of substrate by the KDR enzyme in vitro using a scintillation technique (96-well plate, NEN).
The cytoplasmic domain of the human KDR enzyme was cloned in GST fusion form into the baculovirus expression vector pFastBac. The protein was expressed in SF21 cells and purified to approximately 60% homogeneity. The KDR kinase activity is measured in 20 mM MOPS, 10 mM MgCl2, 10 mM MnCl2, 1 mM DTT, 2.5 mM EGTA, 10 mM b-glycerophosphate, pH=7.2, in the presence of 10 mM MgCl2, 100 μM Na3VO4 and 1 mM NaF. 10 μl of the compound are added to 70 μl of kinase buffer containing 100 ng of KDR enzyme at 4° C. The reaction is initiated by adding 20 μl of solution containing 2 μg of substrate (SH2-SH3 fragment of PLCγ expressed in the form of an GST fusion protein), 2 μCi γ ^33P[ATP] and 2 μM cold ATP. After incubation for 1 hour at 37° C., the reaction is stopped by adding 1 volume (100 μl) of 200 mM EDTA. The incubation buffer is removed and the wells are washed three times with 300 μl of PBS. The radioactivity is measured in each well using a Top Count NXT (Packard) radioactivity counter.
The background noise is determined by measuring the radioactivity in four different wells containing the radioactive ATP and the substrate alone.
A total activity control is measured in four different wells containing all the reagents (γ^33P-[ATP], KDR and PLC-γ substrate) but in the absence of compound.
The inhibition of the KDR activity with the compound of the invention is expressed as percentage inhibition of the control activity determined in the absence of compound.
The compound SU5614 (Calbiochem) (1 μM) is included in each plate as inhibition control.

Cc1cc2nc(-c3[nH]nc4c3CCN(C(=O)c3ccccc3Nc3ccccc3)C4)[nH]c2cc1C [Example P-31378-112-2]
Tie2 % Inhib at 10 μM (FRX) Assay 1 (human Tie2; Assay 1, 10 µM): 92.6%
Tie2 % Inhib at 10 μM (FRX) Assay 2 (human Tie2; Assay 2, 10 µM): 92.6%
KDR % Inhib at 10 μM Assay 1 (human KDR enzyme; Assay 1): 98.1%
KDR % Inhib at 10 μM Assay 2 (human KDR enzyme; Assay 2): 97.4%

Cc1cc2nc(-c3[nH]nc4c3CCN(CCC(C)C)C4)[nH]c2cc1C [Chemistry 17]
inhibition at 10 µM (human Tie2; read-out: Tie2 % Inhib. 10 μM): 50.7%
inhibition at 10 µM (human KDR enzyme; read-out: KDR % Inhib. 10 μM): -2.9%

Cc1cc2nc(-c3[nH]nc4c3CCN(Cc3cccnc3)C4)[nH]c2cc1C [Chemistry 14]
inhibition at 10 µM (human Tie2; read-out: Tie2 % Inhib. 10 μM): 50.5%
inhibition at 10 µM (human KDR enzyme; read-out: KDR % Inhib. 10 μM): 14.8%

Cc1cc2nc(-c3[nH]nc4c3CCN(C(=O)c3ccccc3Nc3ccccc3)C4)[nH]c2cc1C [Example P-31378-112-1]
inhibition at 10 µM (human Tie2; Assay 1, read-out: Tie2 % Inhib at 10 μM (FRX) Assay 1): 83.1%
inhibition at 10 µM (human Tie2; Assay 2, read-out: Tie2 % Inhib at 10 μM (FRX) Assay 2): 88.1%
inhibition at 10 µM (human KDR enzyme; Assay 1, read-out: KDR % Inhib at 10 μM Assay 1): 96.5%
inhibition at 10 µM (human KDR enzyme; Assay 2, read-out: KDR % Inhib at 10 μM Assay 2): 96.7%
